# Experiments:
# [1] = system: histone H4 acetylation; test: Western blot of acetylated histone H4 in keratinocytes; assay type: cell-based, human; details: HaCaT, 24 hours treatment; FIG. 7
# Procedure: Western blot: HaCaT cells were seeded into 6-well culture dishes 24 hrs before treatment. […] Whole cell extracts were prepared by lysis of cells in RIPA buffer plus protease inhibitors for denaturing SDS gel electrophoresis on a 12% denaturing polyacrylamid gel. Acetylated histone H4 was detected by Western blot analysis using an anti-acetylated H4 antibody (clone T25; see patent application EP 02.021984.6) and as an equal loading control expression of β-actin was confirmed using an anti-actin antibody (Sigma, Cat. No. A5441).
# Cells were plated in 6 well plates at day 0. Drugs were added on day 1, cells were lysed on day 2 with RIPA buffer plus protease inhibitors. 40 μg of total cell lysate were separated by 12.5% SDS PAGE and subjected to immunoblotting with the indicated antibodies.
# [2] = system: HaCaT cells; test: MTT assay, growth of human immortalized keratinocytes; assay type: cell-based
# Procedure: MTT assay: This calorimetric assay detects the formation of formazan which is proportional to the number of cells present. Tissue culture medium containing drugs was removed and 200 μl of DME containing 2 mg/ml MTT ((3-4, 5-dimethyl thiazol-2yl) 2,5-diphenyltetrazolium bromide) was added to each well. 96-well plates were incubated at 37 ° C., and 10% CO2 for 30 minutes. Medium containing MTT was then removed and the cells were washed once with PBS. Following removal of the PBS, 200 μL DMSO was added to each well and plates were placed on a rotating platform shaker for 5 minutes. Results were obtained by reading the absorbance at a wavelength of 550 nm using a spectrophotometer. Results are expressed as percentages setting the control as 100%.
# FIG. 1 graphically depicts the results of growth assays performed on human immortalized keratinocytes (HaCaT cells), treated for three days with the indicated compounds. Drugs were added on the same day of plating (day 0). The MTT assay (to measure cell proliferation) was carried out on day 3. Various combinations of the drugs were used in the growth assays.
# Cells were plated in wells on day 0. […] The MTT assay was carried out on day 3. Various combinations of the drugs were also used in the growth assays. […] Thus, the combinatorial activity of these two drugs must be explained via synergistic activity of this treatment.
# Drugs were added on the same day of plating (day 0). The MTT assay (to measure cell proliferation) was carried out on the third day. […] Thus, this combinatorial activity of these two drugs must be explained via synergistic activity of this treatment.
# [3] = system: IL-2 and TNF-α; test: IL-2 and TNF-α ELISA, supernatants of stimulated peripheral blood lymphocytes; assay type: cell-based, human
# Procedure: Monocyte and macrophage depleted peripheral blood mononuclear cells were obtained from consenting adults via separation using Ficoll-Hypaque. The peripheral blood mononuclear cells (PBMC) fraction was washed and seeded in 9 cm petri dishes. After an incubation of 2 hours at 37° C. to remove most of the monocytes, macrophages, and B-cells, the non-adherent cells were collected and cultured in 175 cm^2 flasks for 2 days. Cells were harvested and adjusted to 3 million cells per ml. Aliquots of 500 μl were transferred to each well of 24-well flat bottom plates. Peripheral blood lymphocytes (PBL's) were treated with various concentrations of HDAC inhibitors as indicated. After a 2 hours incubation time at 37° C. cells were stimulated with phorbol 12-myristate 13-acetate (PMA)/ionomycin (Ion) or activated via T cell receptor (TCR/CD3) complex with 10 μg/ml anti-CD3 mAb (OKT3) and 2.5 μg/ml anti-CD28 mAb. After 24 hours at 37° C. the supernatant was removed and frozen for cytokine assays. Cell pellets were lysed and total RNA was isolated using the RNeasy mini kit from Qiagen.
# To perform ELISAs, supernatants of treated and untreated PBL's were collected and IL-2 as well as TNF-α were measured using the Duo Set ELISA Development System (R&D Systems) as described by the manufacturer.
# [4] = system: inflammatory cytokines; test: RT-PCR of cytokine mRNA, blood cells of VPA treated patient stimulated with CD3/CD28; assay type: in vivo, human
# Procedure: Total RNA from unstimulated and CD3/CD28 stimulated cells was isolated using the RNeasy mini kit (Qiagen). One microgram of total RNA was converted to cDNA by standard methods using reverse transcriptase and an oligo-dT primer (Invitrogen). For semiquantitative PCR, 2 μl of cDNA were amplified by PCR using the specific primers as described above (FIG. 19C).
# [5] = 1 mM, other experiments, PBLs stimulated with PMA/ION and CD3/CD28 mAbs, FIG. 16
# [6] = PBLs, increasing concentrations two hours, CD3 and CD28 mAbs 24 hours, FIG. 15
# [7] = starting at 24 hours of VPA treatment
smiles,measurement,setting,value
"CCCC(CCC)C(=O)O [VPA, 2-propyl-pentanoic acid]",histone H4 acetylation (Western blot),[1],induces histone H4 hyperacetylation in a dose dependent manner
same,cell growth (MTT assay),"[2]; MTT on day 3, combinations VPA 1 mM + Retinoic Acid 1 or 2 μM, FIG. 2",inhibited growth
same,cell growth (MTT assay),"[2]; MTT on the third day, 5 μM or 10 μM 5-FU and 1 mM VPA, FIG. 3",inhibited growth
same,cell growth (MTT assay),"[2]; treated three days, MTT on day 3, combinations VPA 1 mM + Tazarotene 1 or 2 μM, FIG. 1",inhibited cell growth
same,IL-2 secretion,"[3]; 0.5 mM, PBLs, CD3/CD28, FIG. 15",only moderate effect
same,IL-2 secretion,"[3]; 1 mM, PBLs, CD3/CD28, FIG. 15",only moderate effect
same,IL-2 secretion,[3]; [5],significant decrease
same,TNF-α secretion,[3]; [5],significant decrease
same,IL-2 secretion,"[3]; 5 mM, PBLs, CD3/CD28, FIG. 15",significantly reduced
same,"IL-2 secretion, dose-response",[3]; [6],dose-dependent inhibition
same,"TNF-α secretion, dose-response",[3]; [6],dose-dependent inhibition
same,IL-2 mRNA transcripts,[4]; CD3/CD28 stimulated,decrease
same,TNF-α mRNA transcripts,[4]; CD3/CD28 stimulated,decrease
same,IFN-γ mRNA expression,[4]; [7],significantly reduced
same,IL-4 mRNA expression,[4]; [7],significantly reduced

# Source: patent US20060160897A1, “Topical Use of Valproic Acid for the Prevention or Treatment of Skin Disorders” (priority 2003, published 2006)
